Test results published in patent US5650550A, “Mutant mice having a deficit of functional estrogen receptors” (The United States of America as represented by the …, priority 1995, dated 1997).

Tested on: adult female mice (uterus, vagina)
Experiment: Estrogen responsiveness bioassay in adult females (uterine wet weight, hyperemia, vaginal epithelial cytology)
Format: in vivo, mouse
Conditions: for vaginal histology: after estradiol treatment; for increase in uterine wet weight: treated for three days, compared to untreated control

C[C@]12CC[C@@H]3c4ccc(O)cc4CC[C@H]3[C@@H]1CC[C@@H]2O [estradiol]
vaginal histology (ER disrupted animals): unaltered | uterine water imbibition or uterine hyperemia (ER disrupted animals, treatment for 4-6 hours): no uterine water imbibition or uterine hyperemia | increase in uterine wet weight (heterozygous animals): 3-4 fold | increase in uterine weight or hyperemia (homozygous ER disrupted animals, three day bioassay): did not respond | uterine hyperemia (wild type and heterozygotes, three day bioassay): became hyperemic | vaginal histology (wild type and heterozygous animals): increase in number of cornified epithelial cells | increase in uterine wet weight (wild type animals): 3-4 fold
